Experimental data reported in patent publication US11534415B2, “Use of colchicine to inhibit tumor growth and metastases” (Murray and Poole Enterprises, LTD., priority 2018, dated 2022).

Key:
[1] = tested on: subjects with a first episode of acute pericarditis; details: at 18 months; aspirin alone or plus colchicine 1.0 to 2.0 mg first day then 0.5 to 1.0 mg/day for 3 months; p=0.004; cited from earlier work
[2] = tested on: subjects with a first episode of recurrent pericarditis; details: actual rates at 18 months; aspirin alone or plus colchicine 1.0-2.0 mg first day then 0.5-1.0 mg/d for 6 months; cited from earlier work
[3] = tested on: commonly used tumor models; test: Example 5: anti-tumor effects of colchicine in animals (tumor models); type: in vivo; details: vs placebo control group
Procedure: A sufficient amount of specimen of a suitable animal species are included in this study utilizing commonly used tumor models. A therapeutically effective amount of colchicine is administered to the test animals. Placebo is administered to a control group. Tumor growth is induced in all animals.

[4] = tested on: commonly used tumor cell lines with or without combination with cultivated PBMCs; test: Example 6: anti-tumor effects of colchicine in vitro; type: cell-based; details: incubation with colchicine and/or cultivation with pretreated PBMCs
Text: A suitable in vitro model for studying the anti-tumor effects of drugs is utilized for this test. Such a test may include commonly used tumor cell lines with or without combination with cultivated PBMCs.

[5] = tested on: subjects with stable coronary disease; details: colchicine 0.5 mg/day in addition to statins and other standard secondary prevention therapies; median of 3 years; cited from earlier work
[6] = tested on: human lipopolysaccharide (LPS) stimulated peripheral blood mononuclear cells (PBMC); details: colchicine added to LPS stimulated PBMC; cited from earlier work
[7] = tested on: co-cultures of PBMC with either HT-29 or RKO human colon cancer cells; details: co-culture with HT-29 or RKO cells; cited from earlier work
[8] = tested on: subjects with cancer or in risk of cancer; test: Example 4: randomized observer blinded end-point trial of sustained release colchicine added to standard anti-cancer therapies; details: long-term low dose sustained release colchicine 0.5 mg/day vs standard therapy alone
Procedure: To assess the therapeutic effects of a sustained release formulation in subjects with or in subjects with an increased risk of cancer, a prospective randomized observer blinded end-point trial was conducted to determine whether adding 0.5 mg/day of colchicine to standard anti-cancer therapies inhibits, delays, or reduces tumor growth or metastases in a cancer subject.
A sufficient amount of subjects with cancer or in risk of cancer are randomized to long-term low dose sustained release colchicine or to standard therapy alone.

Compound | recurrence rate [1] [%] | recurrence rate [2] [%] | tumor growth [3] | growth of tumor cell lines [4] | prevention of cardiovascular events [5] | IL-1β release [6] | TNF-α release [6] | IL-1β production by cancer cells-stimulated PBMC [7] | release of TNF-α and IL-10 [7] | cancer incidence and mortality [8]
CC(=O)Oc1ccccc1C(=O)O [aspirin] | 32.3 | 50.6 |  |  |  |  |  |  |  | 
COc1cc2c(c(OC)c1OC)-c1ccc(OC)c(=O)cc1[C@@H](NC(C)=O)CC2 [colchicine, (−)-N-[(7S, 12aS)-1,2,3,10-tetramethoxy-9-oxo-5,6,7,9-tetrahydrobenzo[a]heptalen-7-yl]-acetamide] | 10.7 | 24.0 | tumor growth is prevented and/or reduced | inhibits or reduces growth of tumor cell lines | appeared effective for the prevention of cardiovascular events | increased | decreased | promoted cancer cells-stimulated PBMC to produce IL-1β | inhibit the release of tumor necrosis factor (TNF)-α and IL-10 | significantly lower cancer incidence and mortality
